These results are taken from US8796307B2, “Beta2-adrenoreceptor agonists” (Novartis AG, priority 1999, dated 2014).

The target in one assay is β2-adrenoreceptor (Homo sapiens, UniProt P07550). Nature of the assay: cAMP determination in cells expressing β2-adrenoreceptor. The following applies: read-out: EC50 (β2), binding potency measured by cAMP determination. It is filed as cell-based. From the text:
(§1) Accordingly the invention also provides a compound of formula I in free, salt or solvate form for use as a pharmaceutical. […] The β2 agonist activity, onset of action and duration of action of the agents of the invention may be tested using the guinea pig tracheal stip in vitro assay according to the procedure of R. A. Coleman and A. T. Nials, J. Pharmacol. Methods (1989), 21(1), 71-86. The binding potency and selectivity for the β2-adrenoreceptor relative to the β1-adrenoreceptor can be measured by a classical filtration binding assay according to the procedure of Current Protocols in Pharmacology (S. J. Enna (editor-in-chief) et al, John Wiley & Son, Inc, 1998), or by cAMP determination in cells expressing β2- or β1-adrenoceptor, according to the procedure of B. January et al, British J. Pharmacol. 123: 701-711 (1998).

Assay [1] deals with guinea pig tracheal strip. Briefly: guinea pig tracheal strip in vitro assay.
From the text: as §1

The target in the next assay is β1-adrenoreceptor (Homo sapiens, UniProt P08588). Nature of the assay: cAMP determination in cells expressing β1-adrenoreceptor. It is filed as cell-based.
From the text: as §1

Setting [2] is: cells expressing β1-adrenoreceptor, read-out: EC50 (β1), binding potency measured by cAMP determination.

Each structure is given as a SMILES string. pEC50: −log10 of the molar value. Structures can show the parent of a compound that is named as a salt. Where two headings read alike, the source gives them in different places.

β2-adrenoreceptor, sequence (P07550 whole entry, species assumed): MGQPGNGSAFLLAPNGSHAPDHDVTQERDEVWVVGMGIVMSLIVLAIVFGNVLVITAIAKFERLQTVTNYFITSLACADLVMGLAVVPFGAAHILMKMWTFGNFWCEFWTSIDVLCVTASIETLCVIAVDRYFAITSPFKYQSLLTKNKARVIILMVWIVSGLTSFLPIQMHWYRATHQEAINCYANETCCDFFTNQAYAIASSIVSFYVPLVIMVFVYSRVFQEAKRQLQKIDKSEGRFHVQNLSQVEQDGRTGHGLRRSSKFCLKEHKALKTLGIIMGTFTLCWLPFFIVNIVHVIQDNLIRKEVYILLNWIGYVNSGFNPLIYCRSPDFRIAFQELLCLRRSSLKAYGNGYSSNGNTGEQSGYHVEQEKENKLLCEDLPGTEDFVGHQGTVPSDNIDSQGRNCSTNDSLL
β1-adrenoreceptor, sequence (P08588 whole entry, species assumed): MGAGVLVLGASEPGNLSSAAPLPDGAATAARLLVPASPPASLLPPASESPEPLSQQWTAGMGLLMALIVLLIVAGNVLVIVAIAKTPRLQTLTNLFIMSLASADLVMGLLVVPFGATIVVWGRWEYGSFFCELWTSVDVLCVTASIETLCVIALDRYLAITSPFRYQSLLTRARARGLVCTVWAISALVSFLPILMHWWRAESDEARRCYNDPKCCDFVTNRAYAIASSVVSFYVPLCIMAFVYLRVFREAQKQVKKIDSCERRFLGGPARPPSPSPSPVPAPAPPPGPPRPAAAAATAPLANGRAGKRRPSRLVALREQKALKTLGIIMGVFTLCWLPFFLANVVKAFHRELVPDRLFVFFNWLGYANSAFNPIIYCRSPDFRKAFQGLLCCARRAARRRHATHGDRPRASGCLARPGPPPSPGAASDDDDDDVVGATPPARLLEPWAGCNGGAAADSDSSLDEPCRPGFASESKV

Consider `CCc1cc2c(cc1CC)CC(NCC(O)c1ccc(O)c3[nH]c(=O)ccc13)C2` (stereo not shown) [Example 2, 8-hydroxy-5-[2-(5,6-diethyl-indan-2-ylamino)-1-hydroxy-ethyl]-1H-quinolin-2-one], for which the pEC50 on β2-adrenoreceptor was 9.64; on β1-adrenoreceptor, 8.90. Moreover, the “T(50%), time for inhibition of contraction to decay to 50% of its maximum value” (“T(50%), time for inhibition” below) in assay [1] (at 71 nM concentration) is over 400 min.

Take `O=c1ccc2c([C@@H](O)CNC3Cc4cc5c(cc4C3)CCCC5)ccc(O)c2[nH]1` [Example 5]: the pEC50 on β2-adrenoreceptor was 9.10; at β1-adrenoreceptor (setting [2]), 8.21. The “T(50%), time for inhibition” value in assay [1] (at 100 nM) came to 444 min.

Consider `CC1(NC[C@H](O)c2ccc(O)c3[nH]c(=O)ccc23)Cc2cc3c(cc2C1)CCCC3` [Example 29, 8-Hydroxy-5-[(R)-1-hydroxy-2-(2-methyl-2,3,5,6,7,8-hexahydro-1H-cyclopenta[b]naphthalen-2-ylamino)-ethyl]-1H-quinolin-2-one], for which, in assay [1] (at 10 nM), the “T(50%), time for inhibition” value was 279 min.

For `O=c1ccc2c([C@@H](O)CNC3Cc4cc5c(cc4C3)OCCO5)ccc(O)c2[nH]1` [Example 6], the pEC50 at β2-adrenoreceptor was 9.52; on β1-adrenoreceptor (setting [2]) it was 8.44.

In the case of `CCCc1cc2c(cc1CCC)CC(NC[C@H](O)c1ccc(O)c3[nH]c(=O)ccc13)C2` [Example 8], the pEC50 is 9.24 at β2-adrenoreceptor and 8.07 on β1-adrenoreceptor (setting [2]).

As to `CCc1ccc(CC)c2c1CC(NC[C@H](O)c1ccc(O)c3[nH]c(=O)ccc13)C2` [Example 4], the pEC50 is 8.22 at β2-adrenoreceptor and 7.84 on β1-adrenoreceptor (setting [2]). In addition, the “T(50%), time for inhibition” value in assay [1] (at 100 nM) stood at 82 min.

For `CC1(NC[C@H](O)c2ccc(O)c3[nH]c(=O)ccc23)Cc2ccccc2C1` [Example 27, 8-Hydroxy-5-[(R)-1-hydroxy-2-(2-methyl-indan-2-ylamino)-ethyl]-1H-quinolin-2-one], the pEC50 on β2-adrenoreceptor is 10.92; on β1-adrenoreceptor (setting [2]) it was 9.30. Also, the “T(50%), time for inhibition” value in assay [1] (at 1.0 nM) was determined as 222 min.

Consider `COc1ccc(OC)c2c1CC(NC[C@H](O)c1ccc(O)c3[nH]c(=O)ccc13)C2` [Example 1, (R)-8-hydroxy-5-[2-(4,7-Dimethoxy-indan-2-ylamino)-1-hydroxy-ethyl]-1H-quinolin-2-one hydrochloride], for which the pEC50 on β2-adrenoreceptor was 9.04; on β1-adrenoreceptor (setting [2]), 8.02.

One may read the pEC50 as the EC50 on a negative log10 scale, so that one unit is a factor of ten.
